Test results reported in publication PMC8911826, “Design of Oligourea-Based Foldamers with Antibacterial and Antifungal Activities” (Molecules, 2022).
≈ marks a conversion by molar mass, not a printed value. Like-named read-outs stand apart in the source and are kept apart here. Marks after values point to notes of the source that are not given here.

Key:
E. coli ATCC 25922 = format: cell-based, Escherichia coli
Experimental: (§1) Staphylococcus aureus (S. aureus, ATCC 25923), Staphylococcus aureus S1 Methicillin Resistant (MRSA; this strain was kindly provided by Dr Gilles Prévost, University of Strasbourg), Escherichia coli (E. coli, ATCC 25922), and Pseudomonas aeruginosa (P. aeruginosa, ATCC 27853) strains were used to assess the antibacterial properties of the samples. Bacterial strain was cultured aerobically at 37 °C in Mueller–Hinton broth (MHB) medium (Merck, Germany), pH 7.4. One colony was transferred to 10 mL of MHB medium and incubated at 37 °C for 20 h. To obtain bacteria in the mid logarithmic phase of growth, the absorbance at 620 nm of overnight culture was adjusted to 0.001, corresponding to a final density of 5 × 10^5 CFU/mL. Ninety percent of this culture was incubated with 10% of the test compound at different concentrations. The positive control was composed of 90% bacterial suspension and 10% a mixture of antibiotics (tetracycline: 10 μg/mL and cefotaxime: 0.1 μg/mL in PBS). The negative control was composed of 90% of the bacterial suspension and 10% of PBS, corresponding to our 100% growth.
(§2) In order to test the influence of serum on the minimal inhibitory concentration (MIC), we added 10% decomplemented fetal bovine serum or 50% nondecomplemented fetal bovine serum in MHB medium. After 24 h of incubation at 37 °C with shaking, the optical density at 620 nm of each well was measured. The smallest concentration for which bacterial growth is 0% corresponds to the MIC of the tested compound.

P. aeruginosa ATCC 27853 = format: cell-based, Pseudomonas aeruginosa; details: for MIC, P. aeruginosa ATCC 27853: MHB medium pH 7.4, 24 h, 100 μL, 5 × 10^5 CFU/mL, OD 620 nm, lowest concentration with 0% growth, mean of 3 samples
Experimental: as §1, §2

C. albicans ATCC 18804 = assay: Antifungal MIC assay in SAB, C. albicans; format: cell-based, Candida albicans
Experimental: The Candida albicans (C. albicans, ATCC 18804) strain was used to assess the antifungal properties of the samples. Briefly, C. albicans was cultured aerobically at 30 °C in Sabouraud dextrose broth (SAB) medium (Becton Dickinson, Voisins le Bretonneux, France). One colony was then transferred to 10 mL of SAB medium and incubated at 30 °C for 20 h. The absorbance at 620 nm of overnight culture was adjusted to 0.001 and the tests were performed under the same conditions as those used for bacteria, with the exception of the temperature (30 °C instead of 37 °C) and the culture medium (SAB instead of MHB).

S. aureus ATCC 25923 = format: cell-based, Staphylococcus aureus
Experimental: as §1, §2

[1] = test system: Staphylococcus aureus S1 Methicillin Resistant (MRSA); format: cell-based
Experimental: as §1, §2

MDA-MB-231 cells [2] = details: 24 h
Experimental: (§3) We used the human breast cancer cell line MDA-MB-231. The cells were cultured using RPMI that was supplemented with 100 units/mL penicillin, 100 µg/mL streptomycin, and 10% of fetal calf serum (FCS from HyClone, Fischer Scientific, Illkirch, France). The MDA-MB-231 cells were plated in 48-well plates one day before the experiments were conducted. The cell confluence was around 60% the day of the assay.
The cell viability was determined on MDA-MB-231 cells by performing the MTS assay (3-(4,5-dimethylthiazol-2-yl)-5-(3-carboxymethoxyphenyl)-2-(4-sulfophenyl)-2H-tetrazolium salt) (CellTiter 96® AQueous One Solution Cell Proliferation Assay from Promega). This assay was performed using biological triplicates (same amount of foldamer were added to 3 different wells). Increasing amounts of foldamer diluted in 250 μL/well of RPMI 10% FCS were added to the cells. After 24 h of incubation, the culture medium was removed and replaced with 300 μL/well of RPMI 10% FCS containing the MTS reagent (50 μL/well). After incubation at 37 °C for 1 h and 10 min, 200 μL of medium were withdrawn and used to measure the absorbance at 490 nm (and 680 nm for background). Untreated cells were used as control (100% of cell viability).

MDA-MB-231 cells [3] = test system: MDA-MB-231 cells
Experimental: as §3
The membrane permeabilization activity was measured as the leakage of lactate dehydrogenase (LDH) from the cells. […] Thereby, foldamers were incubated with MDA-MB-231 cells and after incubation at 37 °C for 1 h and 10 min, an aliquot (50 μL) of the supernatant of each well was used for the measurement of the LDH activity. […] The LDH release was measured using a commercially available kit (CytoTox-ONE membrane integrity assay from Promega). Untreated cells were used as control. The value of 100% LDH release was obtained by using cells treated with a lysis buffer. Absorbance was measured at 490 nm (and at 680 nm for background).

[4] = test system: Aspergillus fumigatus 098; assay: Antifungal assay on spores, growth evaluated by microscopy; format: cell-based; details: 30 °C, 24 h without agitation, n = 3
Experimental: Aspergillus fumigatus strain (A. fumigatus, ASPFU098 from Dynamique des interactions hôte pathogène (DIHP) laboratory—EA 7292, Strasbourg) were tested to evaluate the antifungal properties of foldamers. Spores were resuspended at a concentration of 10^3 spores/mL in Sabouraud dextrose broth medium. Test samples were incubated with 90 μL of fungal spores. The suspension was incubated at 30 °C for 24 h without agitation. Fungal growth was monitored microscopically after 24 h. Media alone was used as negative control and corresponds to 100% fungal growth; voriconazole (50 μg/mL) was used as a positive control and corresponds to 100% growth inhibition.

S. aureus = details: 50% bovine serum; cited from earlier work
[5] = MHB medium pH 7.4, 24 h, 37 °C, 100 μL, 5 × 10^5 CFU/mL, OD 620 nm, lowest concentration with 0% growth, mean of 3 samples
[6] = Table S2, MIC of Table 1 in μM, MHB, 24 h, 37 °C

| Compound | MIC, E. coli 25922 (E. coli ATCC 25922; ATCC 25922, 24 h) [μΜ] | MIC, E. coli ATCC 25922 (E. coli ATCC 25922; [5]) [µg/mL] | MIC, P. aeruginosa 27853 (P. aeruginosa ATCC 27853; ATCC 27853, 24 h) [μΜ] | MIC, P. aeruginosa ATCC 27853 (P. aeruginosa ATCC 27853; 37 °C) [µg/mL] | MIC, C. albicans 18804 (C. albicans ATCC 18804; ATCC 18804, 24 h) [µg/mL] | MIC, S. aureus 25923 (S. aureus ATCC 25923; ATCC 25923, 24 h) [μΜ] | MIC, S. aureus ATCC 25923 (S. aureus ATCC 25923; [5]) | MIC, MRSA [1, 5] [µg/mL] | MIC, MRSA ([1]; S1 Methicillin Resistant, 24 h) [μΜ] | other results |
| --- | --- | --- | --- | --- | --- | --- | --- | --- | --- | --- |
| CC(C)[C@H](N)CNC(=O)N[C@H](CNC(=O)N[C@H](CNC(=O)N[C@H](CNC(=O)N[C@@H](CCCNC(=N)N)CNC(=O)N[C@H](CNC(=O)N[C@@H](CCCNC(=N)N)CNC(=O)N[C@H](CCC(N)=O)C(C)C)Cc1c[nH]c2ccccc12)C(C)C)Cc1c[nH]c2ccccc12)Cc1c[nH]cn1 [OL-1] | 9.14 | 12.5 (≈ 9.14 µM) | 9.14 | 12.5 (≈ 9.14 µM) | 12.5 (≈ 9.14 µM) | 9.14 | 12.5 * μg/mL | 50 (≈ 36.6 µM) | 36.56 |  |
| CC(C)NC(=O)N[C@H](CNC(=O)N[C@H](CNC(=O)N[C@H](CNC(=O)N[C@H](CNC(=O)N[C@@H](CCCNC(=N)N)CNC(=O)N[C@H](CNC(=O)N[C@@H](CCCNC(=N)N)CNC(=O)N[C@H](CCC(N)=O)C(C)C)Cc1c[nH]c2ccccc12)C(C)C)Cc1c[nH]c2ccccc12)Cc1c[nH]cn1)C(C)C [OL-2] | 4.3 | 6.25 (≈ 4.3 µM) | 17.2 | 25 (≈ 17.2 µM) | 12.5 (≈ 8.6 µM) | 4.3 | 6.25 µg/mL (≈ 4.3 µM) | 12.5 (≈ 8.6 µM) | 8.6 |  |
| CC(C)NC(=O)N[C@H](CNC(=O)N[C@H](CNC(=O)N[C@H](CNC(=O)N[C@H](CNC(=O)N[C@H](CNC(=O)N[C@H](CNC(=O)N[C@@H](CCCNC(=N)N)CNC(=O)N[C@H](CCC(N)=O)C(C)C)Cc1c[nH]c2ccccc12)Cc1c[nH]cn1)C(C)C)Cc1c[nH]c2ccccc12)Cc1c[nH]cn1)C(C)C [OL-3] | 8.7 | 12.5 (≈ 8.72 µM) | 34.8 | 50 (≈ 34.9 µM) | 12.5 (≈ 8.72 µM) | 8.7 | 12.5 µg/mL (≈ 8.72 µM) | 12.5 (≈ 8.72 µM) | 8.7 | IC50, cell viability (MTS) (MDA-MB-231 cells [2]): about 50 μg/mL; LDH leakage / alteration of the membranes (MDA-MB-231 cells [3]): least cytotoxic foldamer towards mammalian cells; MIC, Aspergillus fumigatus 098 ([4]; spores in Sabouraud dextrose broth): below 50 μg/mL; MIC towards MRSA in the presence of 10% serum versus without ([1]; MHB supplemented with 10% decomplemented fetal calf serum, 24 h, 37 °C, mean of three samples): remained unaffected; Change of MIC towards MRSA in the presence of 50% serum ([1]; MHB supplemented with 50% nondecomplemented fetal calf serum, 24 h, 37 °C, mean of three samples): two to four-fold |
| CC(C)NC(=O)N[C@@H](CCCNC(=N)N)CNC(=O)N[C@H](CNC(=O)N[C@H](CNC(=O)N[C@H](CNC(=O)N[C@H](CNC(=O)N[C@H](CNC(=O)N[C@H](CNC(=O)N[C@@H](CCCNC(=N)N)CNC(=O)N[C@H](CCC(N)=O)C(C)C)Cc1c[nH]c2ccccc12)Cc1c[nH]cn1)C(C)C)Cc1c[nH]c2ccccc12)Cc1c[nH]cn1)C(C)C [OL-4] |  | 6.25 (≈ 3.86 µM) |  | 50 (≈ 30.9 µM) |  |  | 6.25 µg/mL (≈ 3.86 µM) | 6.25 (≈ 3.86 µM) |  | MIC, E. coli 25922 (E. coli ATCC 25922; [6]): 3.86 μΜ; MIC, P. aeruginosa 27853 (P. aeruginosa ATCC 27853; [6]): 30.88 μΜ; MIC, C. albicans 18804 (C. albicans ATCC 18804; Sabouraud dextrose broth (SAB), 24 h, 30 °C, 100 μL, OD 620 nm, n = 3): 12.5 µg/mL (≈ 7.72 µM); MIC, S. aureus 25923 (S. aureus ATCC 25923; [6]): 3.86 μΜ; MIC, MRSA [1, 6]: 3.86 μΜ |
| CC(C)NC(=O)N[C@H](CNC(=O)N[C@@H](CCCNC(=N)N)CNC(=O)N[C@H](CNC(=O)N[C@H](CNC(=O)N[C@@H](CCCNC(=N)N)CNC(=O)N[C@H](CNC(=O)N[C@@H](CCCNC(=N)N)CNC(=O)N[C@H](CCC(N)=O)C(C)C)Cc1c[nH]c2ccccc12)C(C)C)Cc1c[nH]c2ccccc12)C(C)C [OL-5] | 4.25 | 6.25 (≈ 4.25 µM) | 8.5 | 12.5 (≈ 8.49 µM) | 6.25 (≈ 4.25 µM) | 8.5 | 12.5 µg/mL (≈ 8.49 µM) | 6.25 (≈ 4.25 µM) | 4.25 |  |
| CC(=O)N[C@@H](CCCCN)C(=O)N[C@@H](Cc1c[nH]cn1)C(=O)N[C@@H](CCCCN)C(=O)N[C@@H](Cc1c[nH]cn1)C(=O)N[C@@H](CCCCN)C(=O)N[C@@H](C)CNC(=O)N[C@H](CNC(=O)N[C@@H](C)CNC(=O)N[C@H](CNC(N)=O)Cc1c[nH]c2ccccc12)Cc1c[nH]c2ccccc12 [OL-6] |  |  |  |  |  |  |  |  |  | MIC, E. coli ATCC 25922 (E. coli ATCC 25922; ATCC 25922, 24 h, pH 7.4): ≥ 100 µg/mL; MIC, S. aureus ATCC 25923 (S. aureus ATCC 25923; ATCC 25923, 24 h, pH 7.4): ≥ 100 µg/mL |
| CC(=O)N[C@@H](CCCNC(=N)N)C(=O)N[C@@H](Cc1c[nH]cn1)C(=O)N[C@@H](CCCNC(=N)N)C(=O)N[C@@H](Cc1c[nH]cn1)C(=O)N[C@@H](CCCNC(=N)N)C(=O)N[C@H](CNC(=O)N[C@H](CNC(=O)N[C@H](CNC(=O)N[C@H](CNC(N)=O)Cc1c[nH]c2ccccc12)C(C)C)Cc1c[nH]c2ccccc12)C(C)C [OL-7] |  |  |  |  |  |  |  |  |  | MIC, E. coli ATCC 25922 (E. coli ATCC 25922; ATCC 25922, 24 h, pH 7.4): ≥ 100 µg/mL; MIC, S. aureus ATCC 25923 (S. aureus ATCC 25923; ATCC 25923, 24 h, pH 7.4): ≥ 100 µg/mL |
| C[C@@H](c1ncncc1F)[C@](O)(Cn1cncn1)c1ccc(F)cc1F [Voriconazole, reference compound] |  |  |  |  |  |  |  |  |  | MIC ([4]; Aspergillus fumigatus, 098, spores in Sabouraud dextrose broth): 12.5 µg/mL (≈ 35.8 µM) |
| Pexiganan |  |  |  |  |  |  |  |  |  | Loss of activity in the presence of serum (S. aureus): 32 fold |
